The text below walks through data of patent publication US10894775B2, “Piperidine derivatives as liver X receptor beta agonists, compositions, and their use” (Merck Sharp & Dohme Corp., priority 2016, dated 2021).

The structures appear in SMILES notation. Where two headings read alike, the source gives them in different places.

Assay [1] has as its target T1, glutathione-S-transferase (GST) tagged LXRbeta LBD (ligand binding domain) (Homo sapiens, UniProt P55055).
T1 construct: purchased Invitrogen pv4658.pps
T1 sequence (P55055 222-460 limits assumed): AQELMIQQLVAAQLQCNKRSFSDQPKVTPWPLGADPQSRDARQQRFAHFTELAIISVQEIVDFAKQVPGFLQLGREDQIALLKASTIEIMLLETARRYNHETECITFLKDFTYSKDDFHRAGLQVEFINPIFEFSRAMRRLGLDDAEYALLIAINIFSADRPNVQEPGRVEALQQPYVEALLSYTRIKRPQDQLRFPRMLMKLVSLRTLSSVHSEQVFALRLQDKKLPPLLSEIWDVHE
Briefly: LanthaScreen TR-FRET Liver X Receptor Coactivator Assay, LXR beta. Type of assay: biochemical. The conditions noted are these: for Emax: read-out: LXR beta actiivty at max dose (%); for EC50: potency (Inflection Point) of compound-induced co-activator recruitment, TR-FRET. Here is the method: (§1) While running the LanthaScreen™ TR-FRET Liver X Receptor Coactivator Assay, LXR alpha-LBD or LXR beta-LBD was added to ligand test compounds followed by addition of a mixture of a fluorescein-labelled coactivator peptide and terbium-conjugated anti-GST antibody. After an incubation period at room temperature, TR-FRET (time-resolved fluorescence resonance energy transfer) was measured using a filter-based instrument capable of TR-FRET, e.g. PerkinElmer Envision.
(In TR-FRET formats the signal depends on donor and acceptor labels being close together.)

Assay [2] concerns the target T2, glutathione-S-transferase (GST) tagged LXRalpha LBD (ligand binding domain) (Homo sapiens, UniProt Q13133).
T2 construct: purchased Invitrogen pv4655
T2 sequence (Q13133 209-447 limits assumed): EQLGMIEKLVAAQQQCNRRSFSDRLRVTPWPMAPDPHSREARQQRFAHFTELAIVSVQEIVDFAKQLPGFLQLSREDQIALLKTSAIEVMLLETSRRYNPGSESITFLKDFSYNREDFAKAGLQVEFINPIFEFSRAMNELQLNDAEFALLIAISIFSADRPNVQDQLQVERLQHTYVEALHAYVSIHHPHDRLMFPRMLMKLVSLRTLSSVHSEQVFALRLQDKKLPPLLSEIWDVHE
In words: LanthaScreen TR-FRET Liver X Receptor Coactivator Assay, LXR alpha. Type of assay: biochemical. The conditions noted are these: for Emax: read-out: LXR alpha actiivty at max dose (%); for EC50 / LXR alpha IP (nM): potency (Inflection Point) of compound-induced co-activator recruitment, TR-FRET. Here is the method:
as §1

Where [3] appears, read: efficacy (Emax) in relation to reference dual agonist T0901317.

With `CN(C)C(=O)c1ccc(N(C)CCC2CC23CCN(C(=O)C(C)(C)c2ccccc2)CC3)cc1Cl` (single isomer, unassigned) [Example 9-1, (S or R)-2-chloro-N,N-dimethyl-4-(methyl(2-(6-(2-methyl-2-phenylpropanoyl)-6-azaspiro[2.5]octan-1-yl)ethyl)amino)benzamide], the Emax in assay [1] (setting [3]) came out at 80%; in assay [2] (setting [3]) it was 22%. Moreover, the EC50 in assay [1] (read-out: LXR beta IP) was 29 nM; in assay [2] (read-out: LXR alpha IP) it was 797 nM.
As for `COc1cccc(C(O)(C(=O)N2CCC3(CCC(Nc4ccc(C(=O)N(C)C)c(Cl)c4)CC3)CC2)C(F)(F)F)c1` (single isomer, unassigned) [Example 10-1, 2-chloro-N,N-dimethyl-4-(3-((R or S)-3,3,3-trifluoro-2-hydroxy-2-(3-methoxyphenyl)propanoyl)-3-azaspiro[5.5]undecan-9-ylamino)benzamide], the Emax in assay [1] (setting [3]) was found to be 54%; in assay [2] (setting [3]), 12%. Further, the EC50 in assay [1] (read-out: LXR beta IP) is 73 nM. Moreover, the “LXR alpha IP (nM)” value in assay [2] was “No IP”.
In the case of `COc1cccc([C@@](O)(C(=O)N2CCC(CC3CC(Nc4ccc(C(=O)N(C)C)c(Cl)c4)C3)CC2)C(F)(F)F)c1` (single isomer, unassigned) [Example 11-1, 2-chloro-N,N-dimethyl-4-((1R,3s)-3-((1-((R or S)-3,3,3-trifluoro-2-hydroxy-2-(3-methoxyphenyl)propanoyl)piperidin-4-yl)methyl)cyclobutylamino)benzamide], the EC50 in assay [1] (read-out: LXR beta IP) came out at 8 nM. In assay [1], the Emax stood at 85%. In assay [2], the “LXR alpha IP (nM)” value is given as “No IP” and the Emax amounted to 12%.
`CN(C)C(=O)c1ccc(NCCC2CC3(CCN(C(=O)C(O)(c4ccccc4)C(F)(F)F)CC3)C2)cc1Cl` (single isomer, unassigned) [Example 13-1, 2-chloro-N,N-dimethyl-4-(2-(7-((R or S)-3,3,3-trifluoro-2-hydroxy-2-phenylpropanoyl)-7-azaspiro[3.5]nonan-2-yl)ethylamino)benzamide]: the Emax in assay [1] (setting [3]) was found to be 57%; in assay [2] (setting [3]) it was 39%. Further, the EC50 came to 6 nM in assay [1] (read-out: LXR beta IP) and 321 nM in assay [2] (read-out: LXR alpha IP).
As for `CN(C)C(=O)c1ccc(CCCC2CCN(C(=O)C(O)(c3ccccc3)C(F)(F)F)CC2)cc1Cl` (single isomer, unassigned) [Example 15-1, (R or S)-2-chloro-N,N-dimethyl-4-(3-(1-(3,3,3-trifluoro-2-hydroxy-2-phenylpropanoyl)piperidin-4-yl)propyl)benzamide], the results for the EC50 in assay [1] (LXR beta IP (nM)) and in assay [2] (LXR alpha IP (nM)) were 46 nM and 1310 nM, respectively. Further, the Emax in assay [1] is 41%; in assay [2], 19%.
Take `CN(C)C(=O)c1ccc(CCCCC2CCN(C(=O)C(O)(c3ccccc3)C(F)(F)F)CC2)cc1Cl` (single isomer, unassigned) [Example 15-2, (R or S)-2-chloro-N,N-dimethyl-4-(4-(1-(3,3,3-trifluoro-2-hydroxy-2-phenylpropanoyl)piperidin-4-yl)butyl)benzamide]: the “LXR beta actiivty at max dose (%)” value in assay [1] (setting [3]) stood at 95%. Moreover, the EC50 in assay [1] (read-out: LXR beta IP) worked out at 28 nM; in assay [2] (read-out: LXR alpha IP), 623 nM. Moreover, the Emax in assay [2] (setting [3]) is 20%.
Take `CN(C)C(=O)c1ccc(CCCCC2CCN(C(=O)C(O)(c3ccccc3)C(F)(F)F)CC2)cc1Cl` (single isomer, unassigned) [Example 15-3, (S or R)-2-chloro-N,N-dimethyl-4-(4-(1-(3,3,3-trifluoro-2-hydroxy-2-phenylpropanoyl)piperidin-4-yl)butyl)benzamide]: the “LXR beta actiivty at max dose (%)” value in assay [1] (setting [3]) is given as 116%. For the same compound, the EC50 is 31 nM in assay [1] (read-out: LXR beta IP) and 846 nM in assay [2] (read-out: LXR alpha IP). Besides, in assay [2] (setting [3]), the “LXR alpha actiivty at max dose (%)” value turned out to be 36%.
On to `COc1cccc(C(O)(C(=O)N2CCC(CCCCCc3ccc(C(=O)N(C)C)c(Cl)c3)CC2)C(F)(F)F)c1` (single isomer, unassigned) [Example 15-5, (R or S)-2-chloro-N,N-dimethyl-4-(5-(1-(3,3,3-trifluoro-2-hydroxy-2-(3-methoxyphenyl)propanoyl)piperidin-4-yl)pentyl)benzamide], for which the Emax in assay [1] (setting [3]) came to 75%; in assay [2] (setting [3]), 22%. The EC50 in assay [1] (read-out: LXR beta IP) came to 16 nM; in assay [2] (read-out: LXR alpha IP), 516 nM.
The matching figures for `CNC(=O)c1ccc(CCCCCC2CCN(C(=O)C(O)(c3cccc(OC)c3)C(F)(F)F)CC2)cc1Cl` (single isomer, unassigned) [Example 15-6, (R or S)-2-chloro-N-methyl-4-(5-(1-(3,3,3-trifluoro-2-hydroxy-2-(3-methoxyphenyl)propanoyl)piperidin-4-yl)pentyl)benzamide]: 96%, 27%, 6 nM and 381 nM.
For `CNC(=O)c1ccc(CCCCCC2CCN(C(=O)C(O)(c3ccccc3)C(F)(F)F)CC2)cc1Cl` (single isomer, unassigned) [Example 15-7, (R or S)-2-chloro-N-methyl-4-(5-(1-(3,3,3-trifluoro-2-hydroxy-2-phenylpropanoyl)piperidin-4-yl)pentyl)benzamide], in that order: 93%, 40%, 6 nM and 327 nM.
Regarding `CN(C)C(=O)c1ccc(CCCCCC2CCN(C(=O)C(O)(c3ccccc3)C(F)(F)F)CC2)cc1Cl` (single isomer, unassigned) [Example 15-8, (R or S)-2-chloro-N,N-dimethyl-4-(5-(1-(3,3,3-trifluoro-2-hydroxy-2-phenylpropanoyl)piperidin-4-yl)pentyl)benzamide], the Emax in assay [1] (setting [3]) worked out at 79%. The EC50 in assay [1] (read-out: LXR beta IP) was 9 nM; in assay [2] (read-out: LXR alpha IP), 236 nM. The “LXR alpha actiivty at max dose (%)” value in assay [2] (setting [3]) is 29%.
In the case of `CN(C)C(=O)c1ccc(CCCCCC2CCN(C(=O)C(O)(c3ccccc3)C(F)(F)F)CC2)cc1Cl` (single isomer, unassigned) [Example 15-9, (S or R)-2-chloro-N,N-dimethyl-4-(5-(1-(3,3,3-trifluoro-2-hydroxy-2-phenylpropanoyl)piperidin-4-yl)pentyl)benzamide], the “LXR beta actiivty at max dose (%)” value in assay [1] (setting [3]) turned out to be 84%. For the same compound, the EC50 in assay [1] (read-out: LXR beta IP) came out at 240 nM. In addition, in assay [2] (setting [3]), the “LXR alpha actiivty at max dose (%)” value is given as 4%. The “LXR alpha IP (nM)” value in assay [2] is “No IP”.
As for `COc1cccc([C@@](O)(C(=O)N2CCC3(CC2)CC(CCCc2ccc(C(=O)N(C)C)c(Cl)c2)C3)C(F)(F)F)c1` (single isomer, unassigned) [Example 16-1, 2-chloro-N,N-dimethyl-4-(3-(7-((R or S)-3,3,3-trifluoro-2-hydroxy-2-(3-methoxyphenyl)propanoyl)-7-azaspiro 13.51 nonan-2-yl)propyl)benzamide], the EC50 in assay [1] (LXR beta IP (nM)) turned out to be 132 nM; in assay [2] (LXR alpha IP (nM)) it was 1540 nM. For the same compound, the Emax was 100% in assay [1] and 19% in assay [2].
As to `CN(C)C(=O)c1ccc(CCCC2CC3(CCN(C(=O)C(O)(c4ccccc4)C(F)(F)F)CC3)C2)cc1Cl` (single isomer, unassigned) [Example 16-2, 2-chloro-N,N-dimethyl-4-(3-(7-((R or S)-3,3,3-trifluoro-2-hydroxy-2-phenylpropanoyl)-7-azaspiro[3.5]nonan-2-yl)propyl)benzamide], the Emax in assay [1] (setting [3]) was 113%; in assay [2] (setting [3]) it was 29%. For the same compound, the EC50 came to 59 nM in assay [1] (read-out: LXR beta IP) and 772 nM in assay [2] (read-out: LXR alpha IP).
Regarding `CN(C)C(=O)c1ccc(CCCC2CC3(CCN(C(=O)C(O)(c4cccc(OC(F)(F)F)c4)C(F)(F)F)CC3)C2)cc1Cl` (single isomer, unassigned) [Example 16-4, 2-chloro-N,N-dimethyl-4-(3-(7-((S or R)-3,3,3-trifluoro-2-hydroxy-2-(3-(trifluoromethoxy)phenyl)propanoyl)-7-azaspiro[3.5]nonan-2-yl)propyl)benzamide], the results for the Emax in assay [1] (setting [3]) and in assay [2] (setting [3]) were 96% and 8%, respectively. Besides, the EC50 in assay [1] (read-out: LXR beta IP) is 58 nM. Moreover, in assay [2], the “LXR alpha IP (nM)” value is recorded as “No IP”.
The matching figures for `COc1cccc([C@@](O)(C(=O)N2CCC3(CC2)C[C@H]3CCCc2ccc(C(=O)N(C)C)c(Cl)c2)C(F)(F)F)c1` (single isomer, unassigned) [Example 17-1, 2-chloro-N,N-dimethyl-4-(3-((R or S)-6-((R or S)-3,3,3-trifluoro-2-hydroxy-2-(3-methoxyphenyl)propanoyl)-6-azaspiro[2.5]octan-1-yl)propyl)benzamide]: 51%, 0%, 12 nM and “No IP”.
